Values quoted from earlier work in patent publication US11293039B2, “Method for producing organic acid salts from fermentation broth” (METABOLIC EXPLORER, priority 2017, dated 2022).

Details: dilute aqueous solution, 25 °C

| Compound | pKa |
| --- | --- |
| CC(Cl)C(=O)O (stereo not shown) [2-Chloropropanoic acid] | 2.83 |
| O=C(O)CCCl [3-Chloropropanoic acid] | 3.98 |
| CC(CC(=O)O)CC(=O)O [3-Methylglutaric acid] | 4.24 |
| N#CCCCC(=O)O [4-Cyanobutanoic acid] | 2.42 |
| N#CCC(=O)O [Cyanoacetic acid] | 2.45 |
| O=C(O)C(O)CO (stereo not shown) [Glyceric acid] | 3.52 |
| CC(C(=O)O)C(=O)O [Methymalonic acid] | 3.07 |
| O=C(O)CCCCCCC(=O)O [Octanedioic acid] | 4.52 |
| O=C(O)[C@@H]1CCCCN1 [l-Pipecolic acid] | 2.28 |
| Alloxanic acid | 6.64 |
